# Earlier results, collected in patent US5162307A, “Polymer bound elastase inhibitors” (Board of Trustees of the University of Kentucky, priority 1992, dated 1992).
# Key:
# [1] = in vivo
# [2] = tested on: rabbits; details: rabbit, in vivo
# [3] = tested on: guinea pigs; details: guinea pig, in vivo
substance,measurement,setting,value
"poly α, β-[N-(2-hydroxyethyl)-D,L-aspartamide] [PHEA]",effect on the biosynthetic mechanism of the serum proteins or of blood cells,[1],no adverse effect
same,toxicity,[1],lack toxicity
same,organ weight,[1]; iv,do not induce any significant changes
same,total weight gain,[1]; iv,do not induce any significant changes
same,immune response (antigenicity),[2],no evidence of an immune response
same,immune response (antigenicity),[3],no evidence of an immune response
